From patent US6046331A, “Imidazolones and their use in treating benign prostatic hyperplasia and other disorders” (Synaptic Pharmaceutical Corporation, priority 1998, dated 2000)

These compounds were tested against T1, human α1d receptor (Homo sapiens, UniProt P25100) (assay: Radioligand binding ([^3 H]prazosin) at cloned human α1d receptor). Conditions: LM(tk-) cell membranes, read-out: hα1d Ki.
T1 construct: The entire coding region of α1d (1719 bp); expressed in transfected cells; host or cells: LM(tk-) mouse fibroblast line L-α1A (old nomenclature), ATCC CRL 11138
T1 sequence (P25100 1-572): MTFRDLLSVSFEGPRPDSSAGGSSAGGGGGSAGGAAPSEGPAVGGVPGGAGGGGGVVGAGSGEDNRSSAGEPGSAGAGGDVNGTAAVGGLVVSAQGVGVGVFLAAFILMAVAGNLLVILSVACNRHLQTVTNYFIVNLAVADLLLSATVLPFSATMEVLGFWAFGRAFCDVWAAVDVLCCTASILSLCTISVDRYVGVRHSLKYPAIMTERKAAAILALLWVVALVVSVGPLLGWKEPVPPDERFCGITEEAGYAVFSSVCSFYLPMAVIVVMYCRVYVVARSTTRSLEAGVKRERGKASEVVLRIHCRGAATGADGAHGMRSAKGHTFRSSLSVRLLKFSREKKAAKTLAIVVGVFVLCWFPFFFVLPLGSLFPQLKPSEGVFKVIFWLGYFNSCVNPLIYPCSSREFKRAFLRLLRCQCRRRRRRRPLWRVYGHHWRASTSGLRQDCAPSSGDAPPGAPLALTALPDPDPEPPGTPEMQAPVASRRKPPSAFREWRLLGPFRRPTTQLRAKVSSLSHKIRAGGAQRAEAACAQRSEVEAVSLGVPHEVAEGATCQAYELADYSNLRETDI
Protocol: Binding affinities were measured for selected compounds of the invention at six cloned human α1 and α2 receptor subtypes, as well as at the L-type calcium channel. The protocols for these experiments are given below.
The activity of compounds at the different human receptors was determined in vitro using cultured cell lines that selectively express the receptor of interest. These cell lines were prepared by transfecting the cloned cDNA or cloned genomic DNA or constructs containing both genomic DNA and cDNA encoding the human α-adrenergic receptors as follows:
α1d Human Adrenergic Receptor: The entire coding region of α1d (1719 bp), including 150 base pairs of 5' untranslated sequence (5' UT) and 300 bp of 3' untranslated sequence (3' UT), was cloned into the BamHI and ClaI sites of the polylinker-modified eukaryotic expression vector pCEXV-3, called EXJ.HR. The construct involved the ligation of partial overlapping human lymphocyte genomic and hippocampal cDNA clones: 5' sequence were contained on a 1.2 kb SmaI-XhoI genomic fragment (the vector-derived BamHI site was used for subcloning instead of the internal insert-derived SmaI site) and 3' sequences were contained on an 1.3 kb XhoI-ClaI cDNA fragment (the ClaI site was from the vector polylinker). Stable cell lines were obtained by cotransfection with the plasmid α1A/EXJ (expression vector containing the α1a receptor gene (old nomenclature)) and the plasmid pGCcos3neo (plasmid containing the aminoglycoside transferase gene) into LM(tk-) cells using calcium phosphate technique. The cells were grown, in a controlled environment (37° C., 5% CO2), as monolayers in Dulbecco's modified Eagle's Medium (GIBCO, Grand Island, N.Y.) containing 25 mM glucose and supplemented with 10% bovine calf serum, 100 units/ml penicillin g, and 100 μg/ml streptomycin sulfate. Stable clones were then selected for resistance to the antibiotic G-418 (1 mg/ml), and membranes were harvested and assayed for their ability to bind [^3 H]prazosin as described below (see "Radioligand Binding assays").
The cell line expressing the human α1d receptor used herein was designated L-α1A (old nomenclature) and was deposited with the American Type Culture Collection, 12301 Parklawn Drive, Rockville, Md. 20852, U.S.A. under the provisions of the Budapest Treaty for the International Recognition of the Deposit of Microorganisms for the Purposes of Patent Procedure. The cell line expressing the human α1d receptor, was accorded ATCC Accession No. CRL 11138, and was deposited on Sep. 25, 1992.
Radioligand Binding Assays for α1 receptors:
Transfected cells from culture flasks were scraped into 5 ml of 5 mM Tris-HCl, 5 mM EDTA, pH 7.5, and lysed by sonication. The cell lysates were centrifuged at 1000 rpm for 5 min at 4° C., and the supernatant was centrifuged at 30,000× g for 20 min at 4° C. The pellet was suspended in 50 mM Tris-HCl, 1 mM MgCl2, and 0.1% ascorbic acid at pH 7.5. Binding of the α1 antagonist [^3 H]prazosin (0.5 nM, specific activity 76.2 Ci/mmol) to membrane preparations of LM(tk-) cells was done in a final volume of 0.25 ml and incubated at 37° C. for 20 min. Nonspecific binding was determined in the presence of […] phentolamine. The reaction was stopped by filtration through GF/B filters using a cell harvester. Inhibition experiments, routinely consisting of 7 concentrations of the tested compounds, were analyzed using a non-linear regression curve-fitting computer program to obtain Ki values.
The compounds described above were assayed using cloned human alpha adrenergic receptors. […] The binding affinities of several compounds are illustrated in the following table.
Binding affinities of selected compounds of the present invention at cloned human α1d, α1b and α1a receptors. (h=human)

Question: `COC(=O)c1[nH]c(=O)n(CCCCCN2CCC(C(=O)OC)(c3ccccc3)CC2)c1-c1ccc(F)c(F)c1` [Compound 1, 1-(5-(4-Methoxycarbonyl-4-phenylpiperidin-1-yl)pent-1-yl)-4-methoxycarbonyl-5-(3,4-difluorophenyl)-2,3-dihydro-2(1H)-imidazolone] was tested. Which Ki did it give?
Answer: The Ki was 329 nM.

Question: For `COC(=O)c1[nH]c(=O)n(CCCCCN2CCC(C#N)(c3ccccc3)CC2)c1-c1ccc(F)c(F)c1` [Compound 2, 5-(3,4-Difluorophenyl)-2,3-dihydro-4-methoxycarbonyl-1-(5-(4-cyano-4-phenylpiperidin-1-yl)pent-1-yl)-2(1H)-imidazolone], which Ki is on record?
Answer: The Ki was 367 nM.

Question: With `COC(=O)c1[nH]c(=O)n(CCCCCN2CCC(O)(c3ccccc3)CC2)c1-c1ccc(F)c(F)c1` [Compound 3, 5-(3,4-Difluorophenyl)-2,3-dihydro-4-methoxycarbonyl-1-(5-(4-hydroxy-4-phenylpiperidin-1-yl)pent-1-yl)-2(1H)-imidazolone] as the compound, how does the Ki read?
Answer: Its Ki is 2660 nM.

Question: For `COC(=O)c1[nH]c(=O)n(CCCCCN2CCN(c3ccccc3C(N)=O)CC2)c1-c1cc(F)c(F)c(F)c1` [Compound 4, 1-(5-(4-(2-Aminocarbonylphenyl)piperazin-1-yl)pent-1-yl)-5-(3,4,5-trifluorophenyl)-2,3-dihydro-4-methoxycarbonyl-2(1H)-imidazolone], which Ki is on record?
Answer: Its Ki is 279 nM.

Question: With `COC(=O)c1ccccc1N1CCN(CCCCCn2c(-c3cc(F)c(F)c(F)c3)c(C(=O)OC)[nH]c2=O)CC1` [Compound 5, 5-(3,4,5-Trifluorophenyl)-2,3-dihydro-4-methoxycarbonyl-1-(5-(4-(2-methoxycarbonylphenyl)piperazin-1-yl)pent-1-yl)-2(1H)-imidazolone] as the compound, how does the Ki read?
Answer: Its Ki is 15.7 nM.

Question: How did the Ki turn out when `CCOC(=O)c1[nH]c(=O)n(CCCCCN2CCN(c3ccccc3C(N)=O)CC2)c1-c1ccc(F)c(F)c1` [Compound 6, 1-(5-(4-(2-Aminocarbonylphenyl)piperazin-1-yl)pent-1-yl)-4-ethoxycarbonyl-5-(3,4-difluorophenyl)-2,3-dihydro-2(1H)-imidazolone] was run?
Answer: The Ki was 141 nM.

Question: `COC(=O)c1[nH]c(=O)n(CCCCCN2CCN(c3ccccc3C(N)=O)CC2)c1-c1cc(F)c(F)cc1F` [Compound 7, 1-(5-(4-(2-Aminocarbonylphenyl)piperazin-1-yl)pent-1-yl)-5-(2,4,5-trifluorophenyl)-2,3-dihydro-4-methoxylcarboxy-2(1H)-imidazolone] was tested. Which Ki did it give?
Answer: Its Ki is 197 nM.

Question: Which Ki does the source give for `COC(=O)c1[nH]c(=O)n(CCCCCN2CCC(C(=O)OC)(c3ccccc3)CC2)c1Cc1ccc(F)c(F)c1` [Compound 37, 5-(3,4-Difluorobenzyl)-2,3-dihydro-4-methoxycarbonyl-1-(5-(4-methoxycarbonyl-4-phenylpiperidin-1-yl)pent-1-yl)-2(1H) -imidazolone] here?
Answer: Its Ki is 513 nM.
